According to ChEMBL document CHEMBL1201862, “PubChem BioAssay data set” (2004):
The source made the active and inactive calls.

Assays:
HEK293 [1] = experiment: cells; details: Homo sapiens
HEK293 [2] = experiment: cells; details: Homo sapiens; remark: listed apart in the source
HEK293 [3] = experiment: cells; type: functional, cell-based; details: Homo sapiens
HEK293 [4] = experiment: cells; type: functional, cell-based; details: Homo sapiens; remark: listed apart in the source
[5] = target: Nucleotide-binding oligomerization domain-containing protein 2 (Homo sapiens, UniProt Q9HC29); experiment: NOD2 signaling inhibitors, cell-based, luminescence, uHTS, HEK293 (AID 1566); type: functional
Nucleotide-binding oligomerization domain-containing protein 2, sequence (Q9HC29 whole entry, the tested form may be a part): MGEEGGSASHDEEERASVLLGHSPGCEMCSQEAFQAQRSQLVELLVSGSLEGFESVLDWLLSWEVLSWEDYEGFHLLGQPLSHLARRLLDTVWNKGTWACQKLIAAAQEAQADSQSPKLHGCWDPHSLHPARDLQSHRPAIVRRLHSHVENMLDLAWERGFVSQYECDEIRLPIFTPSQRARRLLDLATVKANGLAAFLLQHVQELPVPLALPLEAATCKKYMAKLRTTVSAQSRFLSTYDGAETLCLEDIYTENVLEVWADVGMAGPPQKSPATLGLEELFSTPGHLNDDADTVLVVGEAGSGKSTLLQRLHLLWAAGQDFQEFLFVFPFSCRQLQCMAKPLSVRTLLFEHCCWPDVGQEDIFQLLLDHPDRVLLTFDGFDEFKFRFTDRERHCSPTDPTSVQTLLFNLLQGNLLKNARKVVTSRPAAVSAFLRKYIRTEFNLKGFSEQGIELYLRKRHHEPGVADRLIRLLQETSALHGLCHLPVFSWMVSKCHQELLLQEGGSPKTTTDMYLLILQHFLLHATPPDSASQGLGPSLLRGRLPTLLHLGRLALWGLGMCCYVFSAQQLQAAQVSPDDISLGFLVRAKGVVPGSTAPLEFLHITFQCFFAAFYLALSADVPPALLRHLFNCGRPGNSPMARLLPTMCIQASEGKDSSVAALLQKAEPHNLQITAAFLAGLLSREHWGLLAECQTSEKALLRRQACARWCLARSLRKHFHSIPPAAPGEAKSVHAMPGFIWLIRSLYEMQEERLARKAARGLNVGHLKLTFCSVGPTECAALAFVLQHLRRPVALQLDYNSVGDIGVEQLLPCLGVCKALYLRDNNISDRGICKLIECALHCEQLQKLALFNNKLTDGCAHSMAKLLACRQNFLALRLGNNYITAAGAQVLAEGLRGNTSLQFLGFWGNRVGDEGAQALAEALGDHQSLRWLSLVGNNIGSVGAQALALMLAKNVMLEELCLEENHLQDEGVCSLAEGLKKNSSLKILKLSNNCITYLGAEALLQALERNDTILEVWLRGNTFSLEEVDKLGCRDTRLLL

HEK293 [6] = experiment: NOD2 signaling inhibitors in MDP-stimulated cells, cell-based, uHTS, luminescence (AID 2001); type: functional; details: Homo sapiens
HEK293 [7] = experiment: cells; type: functional, cell-based; details: Homo sapiens; remark: listed apart in the source
Nonstructural protein 1 = Nonstructural protein 1 (Influenza A virus, UniProt Q194T2); type: functional, Influenza A virus (A/California/07/2009(H1N1))
Nonstructural protein 1, sequence (Q194T2 whole entry): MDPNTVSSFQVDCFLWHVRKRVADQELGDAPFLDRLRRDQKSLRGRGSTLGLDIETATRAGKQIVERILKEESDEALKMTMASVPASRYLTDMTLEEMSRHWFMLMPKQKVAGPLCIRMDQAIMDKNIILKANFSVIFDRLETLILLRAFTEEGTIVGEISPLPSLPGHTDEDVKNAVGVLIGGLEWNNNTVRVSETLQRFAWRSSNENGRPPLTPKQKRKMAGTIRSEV

HEK293 [8] = experiment: NOD1 signaling inhibitors, primary screen, cell-based, luminescence, uHTS (AID 1578); type: functional; details: Homo sapiens
Protein RecA = target: T1, Protein RecA (Mycobacterium tuberculosis, UniProt P9WHJ3); experiment: Fluorescence Cell-Free Homogeneous Dose Retest to Identify Inhibitors of RecA-Intein Splicing Activity. [Related pubchem assays (depositor defined):AID2097, AID2223, AID489010, AID492950]; type: functional
T1 sequence (P9WHJ3 whole entry): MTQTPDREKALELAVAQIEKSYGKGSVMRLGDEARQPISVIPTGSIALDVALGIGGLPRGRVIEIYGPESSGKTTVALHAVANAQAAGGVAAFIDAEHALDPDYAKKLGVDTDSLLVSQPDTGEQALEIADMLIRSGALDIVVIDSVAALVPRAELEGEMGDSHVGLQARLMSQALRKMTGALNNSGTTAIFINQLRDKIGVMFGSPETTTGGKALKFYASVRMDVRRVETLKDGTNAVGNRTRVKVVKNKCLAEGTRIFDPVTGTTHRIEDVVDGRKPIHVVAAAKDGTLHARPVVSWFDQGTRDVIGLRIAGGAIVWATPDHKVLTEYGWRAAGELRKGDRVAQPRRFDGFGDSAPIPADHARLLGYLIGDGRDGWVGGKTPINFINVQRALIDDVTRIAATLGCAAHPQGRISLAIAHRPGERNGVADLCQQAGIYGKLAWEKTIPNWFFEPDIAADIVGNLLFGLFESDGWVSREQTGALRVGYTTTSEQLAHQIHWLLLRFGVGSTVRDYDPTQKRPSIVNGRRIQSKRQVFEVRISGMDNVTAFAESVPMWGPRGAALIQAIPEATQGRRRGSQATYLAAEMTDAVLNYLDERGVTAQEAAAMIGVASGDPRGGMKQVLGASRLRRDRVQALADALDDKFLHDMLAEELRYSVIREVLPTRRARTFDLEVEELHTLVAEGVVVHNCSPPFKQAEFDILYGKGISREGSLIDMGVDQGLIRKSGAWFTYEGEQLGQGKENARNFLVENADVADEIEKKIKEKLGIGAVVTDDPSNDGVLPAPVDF

[9] = target: T2, Apoptotic protease-activating factor 1 (Homo sapiens, UniProt O14727); type: functional
T2 sequence (O14727 whole entry): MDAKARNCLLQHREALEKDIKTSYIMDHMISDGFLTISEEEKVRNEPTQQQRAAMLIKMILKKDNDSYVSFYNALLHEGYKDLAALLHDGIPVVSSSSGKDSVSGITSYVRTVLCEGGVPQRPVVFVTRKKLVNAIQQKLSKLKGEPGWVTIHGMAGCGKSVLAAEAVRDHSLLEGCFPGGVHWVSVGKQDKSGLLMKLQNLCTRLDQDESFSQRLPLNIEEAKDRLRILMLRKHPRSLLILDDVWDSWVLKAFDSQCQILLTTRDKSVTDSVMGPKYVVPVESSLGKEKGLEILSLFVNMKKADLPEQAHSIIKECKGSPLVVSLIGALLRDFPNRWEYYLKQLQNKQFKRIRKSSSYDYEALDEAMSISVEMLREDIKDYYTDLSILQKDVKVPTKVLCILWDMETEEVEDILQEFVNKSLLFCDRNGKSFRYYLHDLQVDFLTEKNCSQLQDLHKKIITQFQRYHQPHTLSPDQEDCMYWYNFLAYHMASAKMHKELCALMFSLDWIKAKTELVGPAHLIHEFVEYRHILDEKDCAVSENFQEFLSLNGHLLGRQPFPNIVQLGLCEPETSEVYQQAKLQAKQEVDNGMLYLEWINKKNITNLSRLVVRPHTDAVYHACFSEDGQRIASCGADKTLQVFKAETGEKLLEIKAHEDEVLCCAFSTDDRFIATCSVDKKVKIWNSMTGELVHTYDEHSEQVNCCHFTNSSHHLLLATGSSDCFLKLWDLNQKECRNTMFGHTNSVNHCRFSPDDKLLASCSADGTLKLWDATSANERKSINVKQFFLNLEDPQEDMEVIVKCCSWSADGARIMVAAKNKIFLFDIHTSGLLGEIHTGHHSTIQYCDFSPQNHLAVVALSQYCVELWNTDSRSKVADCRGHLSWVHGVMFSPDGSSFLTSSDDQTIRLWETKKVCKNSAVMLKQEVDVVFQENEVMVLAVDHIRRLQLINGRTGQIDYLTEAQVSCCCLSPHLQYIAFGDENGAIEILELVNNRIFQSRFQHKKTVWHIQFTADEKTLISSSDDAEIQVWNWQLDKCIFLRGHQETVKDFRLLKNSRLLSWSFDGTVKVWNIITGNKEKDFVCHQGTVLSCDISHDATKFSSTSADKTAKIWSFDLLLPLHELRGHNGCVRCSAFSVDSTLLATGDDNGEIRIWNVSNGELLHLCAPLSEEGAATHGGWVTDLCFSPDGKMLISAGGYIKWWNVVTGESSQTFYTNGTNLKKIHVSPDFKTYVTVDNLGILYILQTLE

[10] = target: T3, Replicative DNA helicase DnaB (Mycobacterium tuberculosis, UniProt P9WMR3); experiment: DnaB intein splicing inhibitors, dose response, biochemical, cell-free fluorescence (AID 449749); type: functional
T3 sequence (P9WMR3 whole entry): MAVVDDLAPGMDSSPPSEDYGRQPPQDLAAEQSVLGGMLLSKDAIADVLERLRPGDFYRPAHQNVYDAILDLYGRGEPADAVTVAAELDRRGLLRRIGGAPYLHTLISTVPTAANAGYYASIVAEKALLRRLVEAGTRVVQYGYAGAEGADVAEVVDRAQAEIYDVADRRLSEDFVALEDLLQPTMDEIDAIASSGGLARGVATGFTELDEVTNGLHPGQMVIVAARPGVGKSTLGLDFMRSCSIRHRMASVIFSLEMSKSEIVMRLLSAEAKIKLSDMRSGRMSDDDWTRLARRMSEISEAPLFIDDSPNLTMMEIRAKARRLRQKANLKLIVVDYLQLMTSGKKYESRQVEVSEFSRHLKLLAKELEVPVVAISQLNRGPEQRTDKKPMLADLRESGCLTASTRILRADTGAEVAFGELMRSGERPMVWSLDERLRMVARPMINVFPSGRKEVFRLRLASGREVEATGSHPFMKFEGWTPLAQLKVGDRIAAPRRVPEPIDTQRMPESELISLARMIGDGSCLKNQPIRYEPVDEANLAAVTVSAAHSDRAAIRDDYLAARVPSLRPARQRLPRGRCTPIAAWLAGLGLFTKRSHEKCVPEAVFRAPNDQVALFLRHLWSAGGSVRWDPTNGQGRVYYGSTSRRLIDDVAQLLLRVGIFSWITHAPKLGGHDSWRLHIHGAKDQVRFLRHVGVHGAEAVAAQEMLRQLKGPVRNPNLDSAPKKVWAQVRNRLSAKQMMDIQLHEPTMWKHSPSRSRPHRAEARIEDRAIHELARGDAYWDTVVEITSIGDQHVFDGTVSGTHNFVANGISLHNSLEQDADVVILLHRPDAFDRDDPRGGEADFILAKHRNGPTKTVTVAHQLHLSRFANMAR

[11] = C. albicans growth with fluconazole, confirmation, fluorescence, retest (AID 2467); type: functional, cell-based
SUMO-activating enzyme = SUMO-activating enzyme (Homo sapiens, UniProt Q9UBT2); experiment: SUMOylation inhibitor hit validation, confirmation, SUMOylation inhibitor project, biochemical, AlphaScreen (AID 2018); type: functional
SUMO-activating enzyme, sequence (Q9UBE0 whole entry): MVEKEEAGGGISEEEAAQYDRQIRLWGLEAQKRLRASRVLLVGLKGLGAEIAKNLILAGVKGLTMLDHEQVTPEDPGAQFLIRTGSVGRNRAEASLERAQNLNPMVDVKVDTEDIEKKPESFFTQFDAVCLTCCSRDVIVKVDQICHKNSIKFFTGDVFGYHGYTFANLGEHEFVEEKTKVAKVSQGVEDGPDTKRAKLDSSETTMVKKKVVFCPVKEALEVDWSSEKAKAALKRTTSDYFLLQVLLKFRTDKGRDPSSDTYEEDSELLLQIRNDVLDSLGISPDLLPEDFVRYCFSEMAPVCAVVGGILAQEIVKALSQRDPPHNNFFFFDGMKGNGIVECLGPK
SUMO-activating enzyme, sequence (Q9UBT2 whole entry): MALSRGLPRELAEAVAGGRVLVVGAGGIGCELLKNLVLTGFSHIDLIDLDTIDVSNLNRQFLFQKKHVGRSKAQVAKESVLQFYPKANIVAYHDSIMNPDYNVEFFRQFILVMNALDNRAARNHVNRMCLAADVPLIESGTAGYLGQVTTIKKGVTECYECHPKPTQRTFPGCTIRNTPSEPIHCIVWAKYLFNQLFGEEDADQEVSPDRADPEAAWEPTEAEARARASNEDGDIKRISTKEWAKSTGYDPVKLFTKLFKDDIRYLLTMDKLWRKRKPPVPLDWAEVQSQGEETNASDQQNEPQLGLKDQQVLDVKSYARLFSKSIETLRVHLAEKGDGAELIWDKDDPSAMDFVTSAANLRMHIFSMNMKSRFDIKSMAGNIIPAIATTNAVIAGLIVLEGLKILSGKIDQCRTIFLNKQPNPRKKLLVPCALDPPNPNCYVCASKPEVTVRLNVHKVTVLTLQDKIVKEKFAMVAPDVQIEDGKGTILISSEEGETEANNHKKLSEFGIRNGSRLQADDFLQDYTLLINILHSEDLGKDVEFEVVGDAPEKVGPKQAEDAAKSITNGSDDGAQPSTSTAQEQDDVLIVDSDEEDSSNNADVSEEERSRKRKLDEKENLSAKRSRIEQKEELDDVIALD

[12] = NIH-3T3 fibroblast cytotoxicity, dose response, cytotoxicity control, cell-based, fluorescence, Alamar Blue, secondary assay (AID 2327); type: functional;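 further: NIH-3T3 mouse fibroblasts cultured with fluconazole at 8 µg/mL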
Cytochrome P450 2D6 = Cytochrome P450 2D6 (Homo sapiens, UniProt P10635);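 further: CYP2D6 member of a cytochrome P450 panel assay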
Cytochrome P450 2D6, sequence (P10635 whole entry): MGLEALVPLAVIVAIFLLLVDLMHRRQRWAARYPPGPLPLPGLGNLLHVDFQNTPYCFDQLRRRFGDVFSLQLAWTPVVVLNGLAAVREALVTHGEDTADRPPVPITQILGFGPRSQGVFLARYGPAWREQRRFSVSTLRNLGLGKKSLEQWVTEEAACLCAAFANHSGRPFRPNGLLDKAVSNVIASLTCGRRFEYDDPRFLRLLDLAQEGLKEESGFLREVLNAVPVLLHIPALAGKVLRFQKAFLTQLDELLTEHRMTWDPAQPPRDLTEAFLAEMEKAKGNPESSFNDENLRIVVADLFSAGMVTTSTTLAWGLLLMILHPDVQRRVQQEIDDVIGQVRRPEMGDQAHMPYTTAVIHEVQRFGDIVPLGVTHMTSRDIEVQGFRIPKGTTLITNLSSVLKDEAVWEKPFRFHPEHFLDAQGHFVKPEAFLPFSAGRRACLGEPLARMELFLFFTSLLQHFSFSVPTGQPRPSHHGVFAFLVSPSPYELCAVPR

[13] = target: G-protein coupled receptor 55 (Homo sapiens, UniProt Q9Y2T6); experiment: GPR55 antagonists, SAR follow-up, counter-screen for GPR35 antagonist project, imaging, image-based (AID 2397); type: functional
G-protein coupled receptor 55, sequence (Q9Y2T6 whole entry): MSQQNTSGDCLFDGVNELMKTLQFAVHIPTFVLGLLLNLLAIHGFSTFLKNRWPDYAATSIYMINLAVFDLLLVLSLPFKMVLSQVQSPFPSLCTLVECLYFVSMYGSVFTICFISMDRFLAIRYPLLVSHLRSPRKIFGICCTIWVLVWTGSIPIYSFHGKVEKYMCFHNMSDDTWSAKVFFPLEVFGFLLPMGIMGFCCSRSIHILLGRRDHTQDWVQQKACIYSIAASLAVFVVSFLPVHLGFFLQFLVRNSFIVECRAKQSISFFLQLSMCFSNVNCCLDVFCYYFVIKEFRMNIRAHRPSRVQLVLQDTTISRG

Streptokinase A = target: T4, Streptokinase A (Streptococcus pyogenes serotype M1, UniProt P10520); experiment: S. pyogenes streptokinase expression inhibitors, potency, dose response, plasminogen activation absorbance, OD405 (AID 1914); type: functional, Streptococcus pyogenes M1 GAS;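 further: secreted streptokinase activity via plasminogen activation per viability signal from cell pellet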
T4 sequence (P10520 whole entry): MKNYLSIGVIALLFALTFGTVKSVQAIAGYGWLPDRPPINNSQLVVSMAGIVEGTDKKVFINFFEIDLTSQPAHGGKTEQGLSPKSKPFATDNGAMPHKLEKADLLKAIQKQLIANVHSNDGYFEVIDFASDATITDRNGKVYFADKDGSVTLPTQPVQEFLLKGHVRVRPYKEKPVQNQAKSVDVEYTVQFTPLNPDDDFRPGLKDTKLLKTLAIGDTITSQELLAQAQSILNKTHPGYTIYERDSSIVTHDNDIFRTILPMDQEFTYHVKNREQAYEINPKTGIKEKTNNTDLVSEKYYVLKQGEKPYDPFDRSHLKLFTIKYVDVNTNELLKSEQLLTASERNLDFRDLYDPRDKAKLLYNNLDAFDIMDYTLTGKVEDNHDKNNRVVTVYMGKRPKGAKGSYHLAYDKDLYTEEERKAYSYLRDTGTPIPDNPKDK

[14] = test system: Streptococcus sp. 'group A'; experiment: growth inhibition of control SK(-) GAS strain, dose response, counter-screen for streptokinase expression inhibitor project, luminescence, kanamycin, BacTiterGlo, confirmation (AID 1900); type: functional, organism-based
[15] = target: T5, Ubiquitin-conjugating enzyme E2 N (Homo sapiens, UniProt P61088); type: functional;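 further: Dose-response confirmation in a TR-FRET assay detecting UBC13-driven polyubiquitin chain formation, inhibition measured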
T5 sequence (P61088 whole entry): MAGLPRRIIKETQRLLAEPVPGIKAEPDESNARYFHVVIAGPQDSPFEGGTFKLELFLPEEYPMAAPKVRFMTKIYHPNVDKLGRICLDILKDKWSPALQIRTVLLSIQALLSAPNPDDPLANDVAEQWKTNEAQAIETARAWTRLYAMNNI

Streptococcus = experiment: Group A Streptococcus viability loss, dose response, counter-screen for streptokinase expression inhibitor project, luminescence, BacTiterGlo (AID 1915); type: functional, organism-based;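 further: potency for reduction of bacterial viability or growth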
INS1 = experiment: beta cell apoptosis inhibitors, cytokine rescue, dose response, luminescence, retest (AID 449756); type: functional, cell-based; details: Rattus norvegicus;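 further: cell death triggered by IL-1 beta plus TNF-alpha plus IFN-gamma mixture; protective hits raise ATP signal compared with cytokine alone wells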
Phosphomannomutase 2 = Phosphomannomutase 2 (Homo sapiens, UniProt O15305); experiment: Counter screen SAR assay for PMM2 inhibitors via a fluorescence intensity assay. [Related pubchem assays (depositor defined):AID1545, AID1574]
Phosphomannomutase 2, sequence (O15305 whole entry): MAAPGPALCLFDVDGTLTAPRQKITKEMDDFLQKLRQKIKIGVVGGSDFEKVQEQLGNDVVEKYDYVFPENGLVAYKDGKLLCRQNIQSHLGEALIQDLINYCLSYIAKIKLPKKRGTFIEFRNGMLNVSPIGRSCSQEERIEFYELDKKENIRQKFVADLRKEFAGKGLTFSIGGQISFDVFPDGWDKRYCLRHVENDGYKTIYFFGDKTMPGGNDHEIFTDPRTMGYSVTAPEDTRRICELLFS

[16] = target: T6, Mannose-6-phosphate isomerase (Homo sapiens, UniProt P34949); experiment: inhibitors of human PMI, primary screen, biochemical, fluorescence intensity, coupled assay (AID 1209)
T6 sequence (P34949 whole entry): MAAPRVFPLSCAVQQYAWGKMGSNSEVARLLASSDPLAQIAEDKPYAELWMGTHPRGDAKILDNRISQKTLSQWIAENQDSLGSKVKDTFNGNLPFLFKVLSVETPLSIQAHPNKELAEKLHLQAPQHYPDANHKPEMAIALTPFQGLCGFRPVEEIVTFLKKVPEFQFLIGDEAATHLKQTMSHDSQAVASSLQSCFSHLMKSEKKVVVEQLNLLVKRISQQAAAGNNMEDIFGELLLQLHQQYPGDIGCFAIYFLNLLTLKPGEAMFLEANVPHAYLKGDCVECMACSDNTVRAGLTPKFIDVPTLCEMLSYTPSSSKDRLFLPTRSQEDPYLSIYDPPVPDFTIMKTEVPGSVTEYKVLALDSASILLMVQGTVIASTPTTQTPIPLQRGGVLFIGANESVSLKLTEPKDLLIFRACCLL

[17] = target: T6, Mannose-6-phosphate isomerase; experiment: PMI enzyme inhibitors, confirmation, biochemical, fluorescence intensity (AID 1535)

N#Cc1c(-c2ccccc2)cc(C2CC2)nc1N
EC50 (HEK293 [1]): > 59.7 µM (inactive) | EC50 (HEK293 [2]): > 59.7 µM (inactive)

CCCn1c(C)cc(C(=O)COc2ccc(C)nc2[N+](=O)[O-])c1C
IC50 (HEK293 [3]): > 20 µM (inactive) | IC50 (HEK293 [4]): > 20 µM (inactive) | EC50 [5]: 7.64 µM (active) | IC50 (HEK293 [6]): > 20 µM (inactive) | IC50 (HEK293 [7]): 3.81 µM (active) | IC50 (Nonstructural protein 1): > 100 µM (active) | EC50 (HEK293 [8]): > 20 µM (inactive)

O=[N+]([O-])c1cccc(/C=N/c2cccc3ccccc23)c1O
EC50 (Protein RecA): 41.9 µM (active) | IC50 [9]: 56.6 µM (active) | AC50 [10]: 54.6 µM (active) | EC50 [11]: 3.78 µM (active) | IC50 (SUMO-activating enzyme): 20.4 µM (active) | EC50 [12]: 107 µM (active)

CCOC(=O)c1c(NC(=O)/C=C/c2ccc3c(c2)OCO3)sc(C)c1C
AC50 (Cytochrome P450 2D6): inconclusive

CCc1ccc(NC(=O)CSc2nc3ccsc3c(=O)n2Cc2ccc(OC)cc2)cc1
IC50 [13]: > 32 µM (inactive)

Cc1nc(Nc2cnc(/C=C/c3cc(C(=O)Nc4cccc(C(F)(F)F)c4)ccc3C)cn2)cc(N2CCNCC2)n1
IC50 (HEK293 [3]): > 20 µM (inactive) | IC50 (HEK293 [4]): > 20 µM (inactive) | EC50 [5]: 8.28 µM (active) | EC50 (Streptokinase A): 11.4 µM (active) | IC50 (HEK293 [6]): > 20 µM (inactive) | IC50 (HEK293 [7]): > 20 µM (inactive) | EC50 [14]: 6.39 µM (active) | IC50 [15]: > 20 µM (inactive) | EC50 (Streptococcus): > 150 µM (not active) | EC50 (HEK293 [8]): 7.82 µM (active) | AC50 (INS1): 8.7 µM (active)

Cc1ccc(NC2Nc3cc(C)nn3S2)c(C)c1 (configuration not stated)
IC50 (Phosphomannomutase 2): > 100 µM (inactive) | IC50 [16]: 11.2 µM (active) | IC50 [17]: > 50 µM (inactive)

C#CCCCO/N=C1/[C@H]2O[C@@H]2[C@@H](O)[C@H]2[C@H]1CCn1c(=O)n(C)c(=O)n12
AC50 (Cytochrome P450 2D6): inconclusive
